Tests used:
LE/Ly cholesterol = conditions: cited from earlier work
PSENdKO cells [1] = test: Confocal immunofluorescence (compartment size, Mander's colocalization, filipin) in PSENdKO cells; type: cell-based, mouse
Method: For OSW-1 (30310-1, Sanbio/Cayman Chemical), cells were treated overnight with 10 nM. Diluent treatment alone (in most cases DMSO, water for the cyclodextrin) was used as vehicle control. KO cell lines: PSEN1 and 2 KO cell lines (PSENdKO) cell lines were established as described in ([…] al 2020). Briefly, the web-based CRISPR design tool was used to select the sequence to be targeted in mouse PSEN1 and PSEN2 ([NT] and [NT], respectively). Oligo pairs encoding guide sequences (obtained from Integrated DNA Technologies, IDT) were annealed and ligated into the pX330 plasmid (Addgene) according to the Zhang's laboratory protocol (https://www.addgene.org/crispr/zhang/). MEF cells were then transfected with the pX330-PSEN1 and PX330-PSEN2, using Fugene HD (Promega), in accordance with the manufacturer protocol. Selection of PSENdKO clones was achieved through serial dilution and confirmed by WB analysis. Further depletion of APP in different PSENdKO clones was achieved through electroporation of RNP complexes. Single guide RNA (sgRNAs) were designed to either target exon 2 ([NT]) or exon 3 ([NT]). The Neon Transfection System (ThermoFisher Scientific, one pulse, 1650 V, 20 ms) was used to electroporate 150 000 cells with 10 pmol of Cas 9 (IDT) and 20 pmol of single guide RNA (IDT). As above, cells were amplified and selection of independent APPKO clones was performed with serial dilutions and WB characterization. All clones of interest were sequenced using Sanger sequencing. […] Primary antibodies diluted in the same blocking buffer were incubated overnight at 4° C. Following PBS washing steps, (goat- or donkey-) secondary antibodies conjugated with Alexa fluor dyes (Alexa 488, 568, or 647, all ThermoFisher Scientific) diluted in the blocking buffer were incubated for 1 h, RT. Coverslips were then mounted with Mowiol (Sigma). When cholesterol labelling was performed, fixed cells were treated with 200 μg·ml-1 filipin (F4767, Sigma) for 2 h at RT, prior to permeabilization. Acquisition: Z stack images (spacing 2 μm), or a median plan were acquired on a Nikon 1AR connected to an inverse Nikon Ti-2000 equipped with an oil-immersion plan APO 60× objective lenses with 1.40 NA. Data were collected using Nikon Imaging Software. […] Image analysis: All image analysis was done using Image J software (Schindelin et al 2012; Schneider et al 2012). To measure the area of the organelle of interest (early endosomes-EEA1; lysosomes-Lamp1; retromer-VPS35 . . . ), segmentation was realized using automatic thresholding. The following masks were used: Mean (EEA1), Ostu (Lamp1), Intermodes (VPS35). Overlap of signal of interests were quantified with Manders colocalisation index (Plugin Jacob, (Bolte and Cordelieres 2006)). When indicated, co-localization data was normalized to the reference group for multiple comparisons.

Npc1 mice = conditions: oral; cited from earlier work
cats = conditions: cited from earlier work
NPC patients = conditions: clinical trials; cited from earlier work
WT MEFs = test: Lysosomal Ca2+ content, Fura-2AM loaded cells challenged with GPN, WT cells; type: cell-based, mouse
Method: Cells were treated with the following drugs, usually for 4 days, unless otherwise stated: DAPT (2634/10, Tocris) 1 μM final; Inhibitor X (565771-250 μg, Calbiochem/Merck) 1 μM final; β-Secretase Inhibitor IV (565788, Calbiochem/Merck) 2 μM final, (2-Hydroxypropyl)-γ-cyclodextrin (H125-5G-I, Sigma Aldrich) 1 mM final; Adam 10 inhibitor G1254023X (SML0789, Sigma Aldrich) 3 μM final. For OSW-1 (30310-1, Sanbio/Cayman Chemical), cells were treated overnight with 10 nM. Diluent treatment alone (in most cases DMSO, water for the cyclodextrin) was used as vehicle control.
Cytosolic response: Ca2+ responses were measured as previously described in Coen et al 2012. Briefly, cells (0.005 to 0.01×106) were seeded two to three days prior to the experiment on glass coverslips (631-0153, VWR). On the day of recording, cells were rinsed three times in Ringer solution (155 mM NaCl, 5 mM KCl, 2 mM MgCl2, 2 mM CaCl2, 10 mM Glucose, 10 mM HEPES, 2 mM NaH2PO4·2H20; pH 7.3), and loaded 1 μM Fura2-AM (F1221, ThermoFisher Scientific) for 30 min (RT). Cells were rinsed three times and left to equilibrate for at least 15-20 min (RT). All acquisitions were carried out in Ringer Ca2+ free solution (same as above, albeit the 2 mM CaCl2 were replaced by 2 mM EGTA). During experiments, cells were challenged with different drugs, such as Thapsigargin (T7459, ThermoFisher Scientific, 1 μM final), GPN (ab145914, abcam, 100 μM final for MEFs, 500 μM for neurons), MLSA1 (Cat. No. 4746, Tocris, 20 μM final) or lonomycin (10634, Sigma Aldrich, 1 μM final). Images were acquired every 5 sec for 8-10 min, using an Olympus IX81 using an UAPO/340 40× oil objective (1.35 NA), operated by CellR Software (Olympus). Recordings were done using 340 and 380 nm excitation, and 530 nm emission filters. Image processing was performed using Image J Software (Schindelin et al 2012; Schneider et al 2012). Briefly, cells were segmented manually and fluorescence intensities were measured over time. Fura-2 signals were corrected to obtain ΔF/F0 (F0 being the initial signal recorded). For each cell, the area under the curve, corresponding to the aforementioned stimulation, was measured using GraphPad Prism.

PSENdKO cells [2] = test: Lysosomal Ca2+ content, Fura-2AM loaded cells challenged with GPN, PSENdKO cells; type: cell-based, mouse; design: lysosomal Ca2+ content: dose or concentration left out as unconfirmed
Source text: Diluent treatment alone (in most cases DMSO, water for the cyclodextrin) was used as vehicle control.
Briefly, the web-based CRISPR design tool was used to select the sequence to be targeted in mouse PSEN1 and PSEN2 (i.e. 5′-[…]-3′ and 5′-[…]-3′, respectively). Oligo pairs encoding guide sequences (obtained from Integrated DNA Technologies, IDT) were annealed and ligated into the pX330 plasmid (Addgene) according to the Zhang's laboratory protocol (https://www.addgene.org/crispr/zhang/). MEF cells were then transfected with the pX330-PSEN1 and PX330-PSEN2, using Fugene HD (Promega), in accordance with the manufacturer protocol. Selection of PSENdKO clones was achieved through serial dilution and confirmed by WB analysis. Further depletion of APP in different PSENdKO clones was achieved through electroporation of RNP complexes. […]
Cells were rinsed three times and left to equilibrate for at least 15-20 min (RT). […] Briefly, cells were segmented manually and fluorescence intensities were measured over time. Fura-2 signals were corrected to obtain ΔF/F0 (F0 being the initial signal recorded). For each cell, the area under the curve, corresponding to the aforementioned stimulation, was measured using GraphPad Prism.

Npc1-null cells = conditions: cited from earlier work
NPC disease models = conditions: cited from earlier work
Npc1 cats = conditions: intrathecal 120 mg every 2 weeks; cited from earlier work
[3] = system: cultured skin fibroblasts of NPC patients; conditions: cited from earlier work
[4] = system: NPC1−/− neural stem cells; conditions: cited from earlier work
[5] = overnight, 10 nM, data not shown

CCNC(=O)c1noc(-c2cc(C(C)C)c(O)cc2O)c1-c1ccc(CN2CCOCC2)cc1 [AUY922]
clearance of cholesterol from LE/Ly (LE/Ly cholesterol): clearance of cholesterol from LE/Ly

Cc1ccc(NC(=O)c2ccc(CN3CCN(C)CC3)cc2)cc1Nc1nccc(-c2cccnc2)n1 [Imatinib]
APP-CTFs in VPS35-positive organelles (PSENdKO cells [1]): significant decrease of APP-CTFs in VPS35-positive organelles
VPS35-LAMP1 co-localization (PSENdKO cells [1]; vs DMSO): lowered VPS35-LAMP1 co-localization

CCCCN1C[C@H](O)[C@@H](O)[C@H](O)[C@H]1CO [Miglustat, N-butyl-deoxynojirimycin]
accumulation of gangliosides in the brain (Npc1 mice): reduced the accumulation of gangliosides in the brain
increase of lifespan (Npc1 mice): approximately 33%
neurological progression of the disease (Npc1 mice): slowed the neurological progression of the disease
accumulation of gangliosides in the brain (cats): reduced accumulation of gangliosides in the brain
increase of lifespan (cats): approximately 74%
onset of neurological symptoms (cats): delayed onset of neurological symptoms
neurological outcome (e.g. dysphagia, supranuclear gaze palsy) (NPC patients): neurological improvement or stabilization

CC(C)C[C@H](NC(=O)[C@H](Cc1ccccc1)C[C@@H](O)[C@H](Cc1ccccc1)NC(=O)OC(C)(C)C)C(=O)N[C@@H](Cc1ccccc1)C(N)=O [InhibitorX]
lysosomal Ca2+ content (WT MEFs; WT cells, 1 μM, 4 days, normalized to DMSO): reduced

2-hydroxypropyl-γ-cyclodextrin [HPγCD]
lysosomal Ca2+ content (PSENdKO cells [2]; 4 days): fully restored lysosomal Ca2+ content
EEA1 area (PSENdKO cells [1]; 1 mM, 4 days): reduced EEA1 area
accumulation of membrane-tethered APP fragments in Lamp1-positive LE/Lys (PSENdKO cells [1]; 1 mM, 4 days): strongly reduced
colocalization of VPS35 with Lamp1 (PSENdKO cells [1]; 1 mM, 4 days): decreased colocalization of VPS35
filipin staining in Lamp1-positive LE/Lys (PSENdKO cells [1]; 1 mM, 4 days): Reduced filipin staining
intracellular free cholesterol levels and lysosome changes (Npc1-null cells): reduce intracellular free cholesterol levels and normalize the lysosome changes

Cc1[nH]c2ccccc2c1CCNCc1ccc(/C=C/C(=O)NO)cc1 [LBH589]
cholesterol accumulation (NPC disease models): efficiently correct cholesterol accumulation

Nc1ccc(C(=O)Nc2cccc(-c3nc(N4CCOCC4)c4oc5ncccc5c4n3)c2)cn1 [YM201636]
Lysosomal Ca2+ levels (WT MEFs; WT cells, 2 μM, 2 h, 100 μM GPN): reduced

C=CCNC1=C2C[C@@H](C)C[C@H](OC)[C@H](O)[C@@H](C)/C=C(\C)[C@H](OC(N)=O)[C@@H](OC)/C=C\C=C(/C)C(=O)NC(=CC1=O)C2=O [17-AAG]
clearance of cholesterol from LE/Ly (LE/Ly cholesterol): clearance of cholesterol from LE/Ly

COc1ccc(C(=O)O[C@H]2[C@H](O[C@@H]3[C@@H](OC(C)=O)[C@H](O[C@H]4C[C@H]5[C@@H]6CC=C7C[C@@H](O)CC[C@]7(C)[C@H]6CC[C@]5(C)[C@@]4(O)[C@H](C)C(=O)CCC(C)C)OC[C@@H]3O)OC[C@@H](O)[C@@H]2O)cc1 [OSW-1]
lysosomal Ca2+ dysfunction (PSENdKO cells [2]; [5]): nor did it rescue lysosomal Ca2+ dysfunction
lysosomal cholesterol staining (PSENdKO cells [1]; [5]): did not decrease lysosomal cholesterol staining

2-Hydroxypropyl-beta-cyclodextrin [HP-beta-CD]
neurological dysfunction and lipid accumulation in neurons (Npc1 cats): reduced neurological dysfunction and lipid accumulation in neurons

CC(C)c1cc(-c2n[nH]c(=O)n2-c2ccc3c(ccn3C)c2)c(O)cc1O [Ganetespib]
clearance of cholesterol from LE/Ly (LE/Ly cholesterol): clearance of cholesterol from LE/Ly

CO/C1=C\C(C)=C\[C@@H](C)[C@@H](O)[C@@H](C)C/C(C)=C/C=C/[C@H](OC)[C@@H]([C@@H](C)[C@@H](O)[C@H](C)[C@@]2(O)C[C@@H](O)[C@H](C)[C@@H](C(C)C)O2)OC1=O [bafilomycin1]
lysosomal Ca2+ content (WT MEFs; full alkalinization, compared with PSENdKO cells): equally affected lysosomal Ca2+ content as observed in PSENdKO cells

[O-][n+]1cccc(/C(Cl)=N/OC[C@H](O)CN2CCCCC2)c1 [arimoclomol]
clearance of cholesterol from LE/Ly (LE/Ly cholesterol): same effect

CCc1cc(C(N)=O)ccc1-n1nc(C(C)C)c2c(-n3cnc(-c4cnn(C)c4)c3)ccnc21 [TAS-116]
clearance of cholesterol from LE/Ly (LE/Ly cholesterol): clearance of cholesterol from LE/Ly

CC(C)c1cc(C(=O)N2Cc3ccc(CN4CCN(C)CC4)cc3C2)c(O)cc1O [AT13387]
clearance of cholesterol from LE/Ly (LE/Ly cholesterol): clearance of cholesterol from LE/Ly

CC(/C=C/C(=O)NO)=C\[C@@H](C)C(=O)c1ccc(N(C)C)cc1 [trichostatin A]
cholesterol accumulation (NPC disease models): efficiently correct cholesterol accumulation

O=C(CCCCCCC(=O)Nc1ccccc1)NO [Vorinostat, suberanilohydroxamic acid]
accumulation of lipids in the lysosomes [3]: reduces the accumulation of lipids in the lysosomes

CC1(C)CC(=O)c2c(C(F)(F)F)nn(-c3ccc(C(N)=O)c(N[C@H]4CC[C@H](O)CC4)c3)c2C1 [SNX2112]
clearance of cholesterol from LE/Ly (LE/Ly cholesterol): clearance of cholesterol from LE/Ly

CCCC(CCC)C(=O)O [Valproic acid]
benefit in NPC1−/− neural stem cells [4]: some benefit
